What was measured:
Test in all cases: post-emergence herbicidal activity, greenhouse
Type in all cases: in vivo
Hemp Sesbania = settings: Table III
Outline: (§1)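 Two- to three-week-old greenhouse plants, raised in soil pans, received a foliar atomizer spray containing roughly 0.4% w/w emulsifier mix. Visual injury versus unsprayed checks was recorded at about 2 and 4 weeks after treatment (WAT).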

Common Lambsquarters = system: Common Lambsquarters
Outline: as §1

Barnyardgrass = system: Barnyardgrass
Outline: as §1

Pennsylvania Smartweed = system: Pennsylvania Smartweed
Outline: as §1

Velvetleaf = system: Velvetleaf
Outline: as §1

Rice = settings: Table III
Outline: as §1

Soybean = settings: Table III
Outline: as §1

[1] = 2 WAT, 1.1 kg/h, formulated in anhydrous tetrahydrofuran
[2] = 2 WAT, 5.6 kg/h, formulated in anhydrous tetrahydrofuran
[3] = 2 WAT, .28 kg/h, formulated in anhydrous tetrahydrofuran
[4] = 4 WAT, 1.1 kg/h, formulated in anhydrous tetrahydrofuran
[5] = 4 WAT, 5.6 kg/h, formulated in anhydrous tetrahydrofuran
[6] = 4 WAT, .28 kg/h, formulated in anhydrous tetrahydrofuran
[7] = Table II, 2 WAT, 5.6 kg/h, formulated in anhydrous tetrahydrofuran
[8] = Table II, 2 WAT, 11.2 kg/h, formulated in anhydrous tetrahydrofuran
[9] = Table II, 4 WAT, 5.6 kg/h, formulated in anhydrous tetrahydrofuran
[10] = Table II, 4 WAT, 11.2 kg/h, formulated in anhydrous tetrahydrofuran
[11] = Table III, 2 WAT, 1.1 kg/h, formulated in anhydrous tetrahydrofuran
[12] = Table III, 2 WAT, 5.6 kg/h, formulated in anhydrous tetrahydrofuran
[13] = Table III, 2 WAT, .28 kg/h, formulated in anhydrous tetrahydrofuran
[14] = Table III, 4 WAT, 1.1 kg/h, formulated in anhydrous tetrahydrofuran
[15] = Table III, 4 WAT, 5.6 kg/h, formulated in anhydrous tetrahydrofuran
[16] = Table III, 4 WAT, .28 kg/h, formulated in anhydrous tetrahydrofuran

CCCCOC(=O)CNCP(=O)(O)O[Si](c1ccccc1)(c1ccccc1)C(C)(C)C [Ex. 6, Glycine, N--((([(1,1-Dimethylethyl)Diphenylsilyl]Oxy)Hydroxyphosphinyl)methyl)-Butyl Ester]
1 (25-49% inhibition): Plant Response Index (R) (Hemp Sesbania; 2 WAT, 1.1 kg/h) | Plant Response Index (R) (Hemp Sesbania; [1]) | Plant Response Index (R) (Hemp Sesbania; 4 WAT, 1.1 kg/h) | Plant Response Index (E) (Common Lambsquarters; [7]) | Plant Response Index (E) (Common Lambsquarters; [13]) | Plant Response Index (E) (Common Lambsquarters; [16]) | Plant Response Index (K) (Barnyardgrass; Table II, 2 WAT, 5.6 kg/h) | Plant Response Index (K) (Barnyardgrass; [7]) | Plant Response Index (K) (Barnyardgrass; [8]) | Plant Response Index (K) (Barnyardgrass; [10]) | Plant Response Index (F) (Pennsylvania Smartweed; [13]) | Plant Response Index (F) (Pennsylvania Smartweed; [16]) | Plant Response Index (C) (Velvetleaf; Table II, 4 WAT, 11.2 kg/h) | Plant Response Index (C) (Velvetleaf; [10]) | Plant Response Index (C) (Velvetleaf; Table III, 2 WAT, 1.1 kg/h) | Plant Response Index (C) (Velvetleaf; [11]) | Plant Response Index (C) (Velvetleaf; Table III, 4 WAT, 1.1 kg/h) | Plant Response Index (C) (Velvetleaf; [14]) | Plant Response Index (O) (Rice; 2 WAT, 1.1 kg/h) | Plant Response Index (O) (Rice; [2]) | Plant Response Index (O) (Rice; 4 WAT, 1.1 kg/h) | Plant Response Index (L) (Soybean; 2 WAT, 1.1 kg/h) | Plant Response Index (L) (Soybean; [1]) | Plant Response Index (L) (Soybean; 2 WAT, 5.6 kg/h) | Plant Response Index (L) (Soybean; [3]) | Plant Response Index (L) (Soybean; 4 WAT, 1.1 kg/h) | Plant Response Index (L) (Soybean; [4]) | Plant Response Index (L) (Soybean; 4 WAT, 5.6 kg/h) | Plant Response Index (L) (Soybean; [6])
0 (0-24% inhibition): Plant Response Index (R) (Hemp Sesbania; [3]) | Plant Response Index (R) (Hemp Sesbania; [4]) | Plant Response Index (R) (Hemp Sesbania; [6]) | Plant Response Index (K) (Barnyardgrass; [13]) | Plant Response Index (K) (Barnyardgrass; [16]) | Plant Response Index (F) (Pennsylvania Smartweed; Table II, 2 WAT, 5.6 kg/h) | Plant Response Index (F) (Pennsylvania Smartweed; [7]) | Plant Response Index (F) (Pennsylvania Smartweed; [8]) | Plant Response Index (F) (Pennsylvania Smartweed; Table II, 4 WAT, 5.6 kg/h) | Plant Response Index (F) (Pennsylvania Smartweed; [9]) | Plant Response Index (F) (Pennsylvania Smartweed; [10]) | Plant Response Index (C) (Velvetleaf; Table II, 2 WAT, 5.6 kg/h) | Plant Response Index (C) (Velvetleaf; [7]) | Plant Response Index (C) (Velvetleaf; [8]) | Plant Response Index (C) (Velvetleaf; Table II, 4 WAT, 5.6 kg/h) | Plant Response Index (C) (Velvetleaf; [9]) | Plant Response Index (C) (Velvetleaf; Table III, 2 WAT, .28 kg/h) | Plant Response Index (C) (Velvetleaf; [13]) | Plant Response Index (C) (Velvetleaf; [16]) | Plant Response Index (O) (Rice; [1]) | Plant Response Index (O) (Rice; 2 WAT, .28 kg/h) | Plant Response Index (O) (Rice; [3]) | Plant Response Index (O) (Rice; [4]) | Plant Response Index (O) (Rice; [6]) | Plant Response Index (L) (Soybean; 2 WAT, .28 kg/h)
4 (100% inhibition): Plant Response Index (R) (Hemp Sesbania; [2]) | Plant Response Index (R) (Hemp Sesbania; [5]) | Plant Response Index (E) (Common Lambsquarters; Table II, 4 WAT, 11.2 kg/h) | Plant Response Index (E) (Common Lambsquarters; [10]) | Plant Response Index (E) (Common Lambsquarters; [14]) | Plant Response Index (E) (Common Lambsquarters; [15]) | Plant Response Index (F) (Pennsylvania Smartweed; [14])
2 (50-74% inhibition): Plant Response Index (R) (Hemp Sesbania; 2 WAT, 5.6 kg/h) | Plant Response Index (R) (Hemp Sesbania; 4 WAT, 5.6 kg/h) | Plant Response Index (E) (Common Lambsquarters; Table II, 2 WAT, 5.6 kg/h) | Plant Response Index (E) (Common Lambsquarters; Table II, 4 WAT, 5.6 kg/h) | Plant Response Index (K) (Barnyardgrass; Table II, 2 WAT, 11.2 kg/h) | Plant Response Index (K) (Barnyardgrass; Table II, 4 WAT, 5.6 kg/h) | Plant Response Index (K) (Barnyardgrass; [9]) | Plant Response Index (K) (Barnyardgrass; Table III, 2 WAT, 1.1 kg/h) | Plant Response Index (K) (Barnyardgrass; [11]) | Plant Response Index (K) (Barnyardgrass; [12]) | Plant Response Index (K) (Barnyardgrass; Table III, 2 WAT, .28 kg/h) | Plant Response Index (K) (Barnyardgrass; Table III, 4 WAT, 1.1 kg/h) | Plant Response Index (K) (Barnyardgrass; [14]) | Plant Response Index (K) (Barnyardgrass; [15]) | Plant Response Index (F) (Pennsylvania Smartweed; Table II, 2 WAT, 11.2 kg/h) | Plant Response Index (F) (Pennsylvania Smartweed; Table II, 4 WAT, 11.2 kg/h) | Plant Response Index (F) (Pennsylvania Smartweed; Table III, 2 WAT, 1.1 kg/h) | Plant Response Index (C) (Velvetleaf; Table II, 2 WAT, 11.2 kg/h) | Plant Response Index (C) (Velvetleaf; Table III, 2 WAT, 5.6 kg/h) | Plant Response Index (C) (Velvetleaf; [12]) | Plant Response Index (C) (Velvetleaf; Table III, 4 WAT, 5.6 kg/h) | Plant Response Index (C) (Velvetleaf; [15]) | Plant Response Index (O) (Rice; 2 WAT, 5.6 kg/h) | Plant Response Index (O) (Rice; [5]) | Plant Response Index (L) (Soybean; [2]) | Plant Response Index (L) (Soybean; [5])
3 (75-99% inhibition): Plant Response Index (E) (Common Lambsquarters; Table II, 2 WAT, 11.2 kg/h) | Plant Response Index (E) (Common Lambsquarters; [8]) | Plant Response Index (E) (Common Lambsquarters; [9]) | Plant Response Index (E) (Common Lambsquarters; Table III, 2 WAT, 1.1 kg/h) | Plant Response Index (E) (Common Lambsquarters; [11]) | Plant Response Index (E) (Common Lambsquarters; Table III, 2 WAT, 5.6 kg/h) | Plant Response Index (E) (Common Lambsquarters; [12]) | Plant Response Index (E) (Common Lambsquarters; Table III, 2 WAT, .28 kg/h) | Plant Response Index (E) (Common Lambsquarters; Table III, 4 WAT, 1.1 kg/h) | Plant Response Index (E) (Common Lambsquarters; Table III, 4 WAT, 5.6 kg/h) | Plant Response Index (K) (Barnyardgrass; Table II, 4 WAT, 11.2 kg/h) | Plant Response Index (K) (Barnyardgrass; Table III, 2 WAT, 5.6 kg/h) | Plant Response Index (K) (Barnyardgrass; Table III, 4 WAT, 5.6 kg/h) | Plant Response Index (F) (Pennsylvania Smartweed; [11]) | Plant Response Index (F) (Pennsylvania Smartweed; Table III, 2 WAT, 5.6 kg/h) | Plant Response Index (F) (Pennsylvania Smartweed; Table III, 2 WAT, .28 kg/h) | Plant Response Index (F) (Pennsylvania Smartweed; Table III, 4 WAT, 1.1 kg/h) | Plant Response Index (F) (Pennsylvania Smartweed; Table III, 4 WAT, 5.6 kg/h) | Plant Response Index (O) (Rice; 4 WAT, 5.6 kg/h)

From US4471131A, “Novel silyl esters of N-phosphonomethylglycine” (Monsanto Company, priority 1983, dated 1984)
